The text below walks through data of paper PMC7443514 (Bioorganic & medicinal chemistry, 2020).

Read-outs that look alike come from different tables or passages of the source.

In assay [1] the target is T1, SARM1 TIR domain (bacterial lysate) (Homo sapiens, UniProt Q6SZW1).
T1 sequence (Q6SZW1 561-724): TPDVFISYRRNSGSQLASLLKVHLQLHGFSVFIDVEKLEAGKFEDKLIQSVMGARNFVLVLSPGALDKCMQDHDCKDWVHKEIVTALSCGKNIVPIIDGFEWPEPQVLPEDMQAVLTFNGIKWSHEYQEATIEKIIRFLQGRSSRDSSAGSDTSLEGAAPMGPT
It is filed as biochemical. The following applies: ENAD 0-400 μM; for Inhibition Mechanism: bacterially expressed TIR domain lysate.

Assay [2] addresses T2, purified SARM1 TIR domain (Homo sapiens, UniProt Q6SZW1).
T2 sequence (Q6SZW1 561-724): T1 sequence (Q6SZW1 561-724)
The experiment in a line: Dose response, ENAD assay, purified TIR domain. It is filed as biochemical. Particulars: purified TIR domain (20 μM), 500 μM ENAD.

In assay [3] the target is T1, SARM1 TIR domain (bacterial lysate). The following applies: cited from earlier work.
The test system of assay [4] is SARM1. Particulars: substrate analog; cited from earlier work.

As for `NC(=O)N/N=C/c1ccc([N+](=O)[O-])o1` [Nitroflurazone], the “Inhibition Mechanism” value in assay [1] is “Noncompetitive”.

In the case of `C[C@H]1c2cccc(O)c2C(=O)C2=C(O)[C@]3(O)C(=O)C(C(N)=O)=C(O)[C@@H](N(C)C)[C@@H]3[C@@H](O)[C@@H]21.Cl` [Doxycycline Hydrochloride, Doxycycline hydrochloride], the “Inhibition Mechanism” value in assay [1] is on record as “Noncompetitive”.

On to `[Cl-].[Cl-].[Zn+2]` [Zinc Chloride, Zinc chloride], for which the Ki in assay [1] (bacterially expressed TIR domain (300 nM) lysate) and in assay [3] was 3.3 ± 0.1 µM in each case. For the same molecule, the “Inhibition Mechanism” value is reported as “Noncompetitive” in assay [1] and “noncompetitive” in assay [3]. In assay [2], the IC50 worked out at 10 ± 1 µM.

Turning to `[O-][n+]1ccccc1[S-].[O-][n+]1ccccc1[S-].[Zn+2]` [Pyrithone Zinc, Pyrithone zinc], the “Inhibition Mechanism” value in assay [1] was “Noncompetitive”.

In the case of `NC(=O)c1ccc[n+]([C@@H]2O[C@H](COP(=O)([O-])OP(=O)(O)OC[C@H]3O[C@@H](n4cnc5c4ncn4ccnc54)[C@H](O)[C@@H]3O)[C@@H](O)[C@H]2O)c1` [ENAD, Nicotinamide 1,N^6-ethenoadenine dinucleotide], in assay [4], the Km was 35 ± 15 µM and the kcat is 0.05 ± 0.04 s⁻¹.

In the case of `Cl.Nc1ccc(/N=N/c2ccccc2)c(N)n1` [Phenazopyridine Hydrochloride, Phenazopyridine hydrochloride], in assay [1], the “Inhibition Mechanism” value is on record as “Competitive”.

A word on the Ki: it is a measure of affinity in units of concentration, obtained from inhibition or displacement. In general, IC50 refers to the midpoint of a concentration-inhibition curve. A lower IC50 goes with greater potency in that assay. The Km is the substrate concentration at which the rate is half of its maximum. A word on the kcat: it is the number of substrate molecules converted per active site and unit of time at saturation.
